In patent US11639350B2, “Heteroaryldihydropyrimidine derivatives and methods of treating hepatitis B infections” (Janssen Pharmaceutica NV, priority 2018, dated 2023):
pEC50: −log10 of the molar value.

How the values were obtained:
HBV = HBV inhibitory activity: HBV DNA in the culture medium of HepG2.2.15 cells by q-PCR; assay type: cell-based; conditions: Hepatitis B virus, HepG2.2.15, 144 h, HepG2.2.15 cells, 6 days of compound treatment, HBV DNA in culture medium by q-PCR, highest concentration 10 μM; read-out: EC50
Procedure, shortened: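 Supernatant HBV DNA quantified by q-PCR after a 6-day compound exposure, with one mid-course medium change, of HepG2.2.15 cells (stably integrated HBV; 40,000 per well, 2% FBS). Eight-point 3-fold series topped at 10 μM for antiviral EC50; separate plates of 5,000 cells per well with 100 μM top give CC50.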

[1] = Cytotoxicity determination in HepG2.2.15 cells (CCK-8); assay type: cell-based; conditions: human, 6 days of compound treatment, CCK-8, highest concentration 100 μM
Procedure, shortened: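 CC50 is from CCK-8 absorbance (450 nm, 630 nm reference) after 2.5 h with reagent. Before that, compounds were applied for six days, top concentration 100 μM, eight threefold dilutions, one mid-course medium change, to stably HBV-integrated HepG2.2.15 cells plated at 5,000/well in 2% FBS.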

Row | Structure (SMILES) | pEC50 (HBV) | CC50 at 6 days [1] [nM]
1 | COC(=O)C1=C([C@H]2CC[C@H](C(=O)O)CC2)NC(c2nccs2)=NC1c1ccc(F)cc1Br (stereo partly drawn) [Compound 225, (trans)-4-(6-(2-Bromo-4-fluorophenyl)-5-(methoxycarbonyl)-2-(thiazol-2-yl)-3,6-dihydropyrimidin-4-yl)cyclohexanecarboxylic Acid] | 7.06 | ≥ 100000
2 | COC(=O)C1=C([C@H]2CC[C@@H](C(=O)OC)O2)NC(c2nccs2)=NC1c1cccc(F)c1Cl (single isomer, unassigned) [Compound 73H, cis-Methyl 4-(2-chloro-3-fluorophenyl)-6-(5-(methoxycarbonyl)-tetrahydro-furan-2-yl)-2-(thiazol-2-yl)-1,4-dihydropyrimidine-5-carboxylate] | 6.46 | 32900
3 | CNS(=O)(=O)[C@H]1CC[C@H](C2=C(C(=O)OC)C(c3ccc(F)c(F)c3Cl)N=C(c3ncc(F)cc3F)N2)CC1 (single isomer, unassigned) [Compound 168A, methyl 4-(2-chloro-3,4-difluorophenyl)-2-(3,5-difluoropyridin-2-yl)-6-((trans)-4-(N-methylsulfamoyl)cyclohexyl)-1,4-dihydropyrimidine-5-carboxylate] | 8.22 | 12500
4 | COCCS(=O)(=O)N1CCC(C2=C(C(=O)OC)C(c3ccc(F)cc3Cl)N=C(c3nccs3)N2)CC1 (centres unmarked) [Compound 215, Methyl 4-(2-chloro-4-fluorophenyl)-6-(1-((2-methoxyethyl)sulfonyl)piperidin-4-yl)-2-(thiazol-2-yl)-1,4-dihydropyrimidine-5-carboxylate] | 7.29 | 52700
5 | COC(=O)C1=C(C2CCN(S(=O)(=O)[C@H]3CC[C@@H](CC(=O)O)CC3)CC2)NC(c2nccs2)=NC1c1ccc(F)cc1Cl (relative stereo) [Compound 476B, (cis)-2-(4-((4-(6-(2-Chloro-4-fluorophenyl)-5-(methoxycarbonyl)-2-(thiazol-2-yl)-3,6-dihydropyrimidin-4-yl)piperidin-1-yl)sulfonyl)cyclohexyl)acetic Acid] | 7.36 | 30200
6 | COC(=O)C1=C([C@H]2CC[C@H](S(=O)(=O)NCC(C)(C)C(=O)OC(C)(C)C)CC2)NC(c2nccs2)=NC1c1ccc(F)c(F)c1Cl (single isomer, unassigned) [Compound 361X, (trans)-methyl 6-(4-(N-(3-(tert-butoxy)-2,2-dimethyl-3-oxopropyl)sulfamoyl)cyclohexyl)-4-(2-chloro-3,4-difluorophenyl)-2-(thiazol-2-yl)-1,4-dihydropyrimidine-5-carboxylate] | 7.06 | > 100000
7 | COC(=O)C1=C(C2CCN(S(=O)(=O)c3nccs3)CC2)NC(c2nccs2)=NC1c1ccc(F)cc1Cl (centres unmarked) [Compound 200A, Methyl 4-(2-chloro-4-fluorophenyl)-2-(thiazol-2-yl)-6-(1-(thiazol-2-ylsulfonyl)piperidin-4-yl)-1,4-dihydropyrimidine-5-carboxylate] | 6.99 | > 100000
8 | COC(=O)C1=C(C2CCN(S(=O)(=O)C3CC3)CC2)NC(c2nccs2)=NC1c1ccc(F)cc1Cl (centres unmarked) [Compound 100, Methyl 4-(2-chloro-4-fluorophenyl)-6-(1-(cyclopropylsulfonyl)-piperidin-4-yl)-2-(thiazol-2-yl)-1,4-dihydropyrimidine-5-carboxylate] | 6.78 | 7200
9 | COC(=O)C1=C(C2CCCN2S(C)(=O)=O)NC(c2nccs2)=NC1c1ccc(F)cc1Cl (single isomer, unassigned) [Compound 69C, Methyl 4-(2-chloro-4-fluorophenyl)-6-(1-(methylsulfonyl)-pyrrolidin-2-yl)-2-(thiazol-2-yl)-1,4-dihydropyrimidine-5-carboxylate] | 6.35 | 11900
10 | COC(=O)C1=C(C2CCN(S(C)(=N)=O)CC2)NC(c2nccs2)=NC1c1ccc(F)cc1Cl (single isomer, unassigned) [Compound 401Y, Methyl 4-(2-chloro-4-fluorophenyl)-6-(1-(S-methylsulfonimidoyl)piperidin-4-yl)-2-(thiazol-2-yl)-1,4-dihydropyrimidine-5-carboxylate] | 7.62 | 60000
11 | COC(=O)C1=C([C@H]2CC[C@H](C(=O)OC)CC2)NC(c2nccs2)=NC1c1cccc(F)c1Cl (single isomer, unassigned) [Compound 16X, Methyl 4-(2-chloro-3-fluorophenyl)-6-(trans-4-(methoxycarbonyl)-cyclohexyl)-2-(thiazol-2-yl)-1,4-dihydropyrimidine-5-carboxylate] | 7.31 | 29300
12 | COC(=O)C1=C([C@H]2CC[C@H](NS(=O)(=O)CCO)CC2)NC(c2nccs2)=NC1c1ccc(F)cc1Cl (relative stereo) [Compound 187B, (trans)-Methyl 4-(2-chloro-4-fluorophenyl)-6-(4-(2-hydroxyethylsulfonamido)cyclohexyl)-2-(thiazol-2-yl)-1,4-dihydropyrimidine-5-carboxylate] | 7.49 | 18900
13 | CCOC(=O)C1=C(C2CCN(S(=O)(=O)[C@H]3C[C@H](C(=O)O)C3)CC2)NC(c2c(F)cc(F)cc2F)=NC1c1ccc(F)c(F)c1Cl (stereo partly drawn) [Compound 195A, (trans)-3-((4-(6-(2-Chloro-3,4-difluorophenyl)-5-(ethoxycarbonyl)-2-(2,4,6-trifluorophenyl)-3,6-dihydropyrimidin-4-yl)piperidin-1-yl)sulfonyl)cyclobutanecarboxylic Acid] | 7.08 | 43900
14 | COC(=O)C1=C(C2CCN(S(C)(=O)=O)CC2)NC(c2nccs2)=NC1c1cccc(F)c1Cl (centres unmarked) [Compound 112, Methyl 4-(2-chloro-3-fluorophenyl)-6-(1-(methylsulfonyl)-piperidin-4-yl)-2-(thiazol-2-yl)-1,4-dihydropyrimidine-5-carboxylate] | 6.53 | 43200
15 | COC(=O)C1=C(C2CC2)NC(c2nccs2)=NC1c1ccc(F)cc1Cl (single isomer, unassigned) [Compound 90A, Methyl 4-(2-chloro-4-fluorophenyl)-6-cyclopropyl-2-(thiazol-2-yl)-1,4-dihydropyrimidine-5-carboxylate] | 7.64 | 26700
16 | COC(=O)C1=C(C2CCN(S(=O)(=O)[C@H]3C[C@@H](CO)C3)CC2)NC(c2nccs2)=NC1c1ccc(F)cc1Cl (relative stereo) [Compound 357B, (cis)-Methyl 4-(2-chloro-4-fluorophenyl)-6-(1-((3-(hydroxymethyl)cyclobutyl)sulfonyl)piperidin-4-yl)-2-(thiazol-2-yl)-1,4-dihydropyrimidine-5-carboxylate] | 7.44 | 15400
17 | COC(=O)C1=C(C2CCN(S(=O)(=O)CCO)CC2)NC(c2nccs2)=NC1c1ccc(F)c(F)c1Cl (centres unmarked) [Compound 474, methyl 4-(2-chloro-3,4-difluorophenyl)-6-(1-((2-hydroxyethyl)sulfonyl)piperidin-4-yl)-2-(thiazol-2-yl)-1,4-dihydropyrimidine-5-carboxylate] | 8.15 | 18300
18 | COC(=O)C1=C(C2C[C@@H]3CN(S(C)(=O)=O)C[C@@H]3C2)NC(c2nccs2)=NC1c1ccc(F)cc1Cl (single isomer, unassigned) [Compound 176A, Methyl 4-(2-chloro-4-fluorophenyl)-6-((cis)-2-(methylsulfonyl)-octahydrocyclopenta[c]pyrrol-5-yl)-2-(thiazol-2-yl)-1,4-dihydropyrimidine-5-carboxylate] | 7.16 | 19900
19 | COC(=O)C1=C(C2CCN(S(=O)(=O)[C@H]3C[C@H](C(C)(C)O)C3)CC2)NC(c2nccs2)=NC1c1ccc(F)cc1Cl (single isomer, unassigned) [Compound 244B, (trans)-Methyl 4-(2-chloro-4-fluorophenyl)-6-(1-((3-(2-hydroxypropan-2-yl)cyclobutyl)sulfonyl)piperidin-4-yl)-2-(thiazol-2-yl)-1,4-dihydropyrimidine-5-carboxylate] | 8.22 | 12300
20 | COC(=O)C1=C([C@H]2CC[C@H](N(CCO)C(C)=O)CC2)NC(c2nccs2)=NC1c1ccc(F)c(F)c1Cl (single isomer, unassigned) [Compound 433B, (trans)-Methyl 4-(2-chloro-3,4-difluorophenyl)-6-(4-(N-(2-hydroxyethyl)acetamido)cyclohexyl)-2-(thiazol-2-yl)-1,4-dihydropyrimidine-5-carboxylate] | 7.23 | 17400
21 | COC(=O)C1=C([C@H]2CC[C@H](NS(C)(=O)=O)CC2)NC(c2nccs2)=NC1c1ccc(F)cc1Cl (single isomer, unassigned) [Compound 126B, Methyl 4-(2-chloro-4-fluorophenyl)-6-(trans-4-(methyl-sulfonamido)cyclohexyl)-2-(thiazol-2-yl)-1,4-dihydropyrimidine-5-carboxylate] | 6.46 | 31800
22 | COC(=O)C1=C(C2CCN(S(=O)(=O)c3cccc(C(=O)O)c3)CC2)NC(c2nccs2)=NC1c1cccc(F)c1Cl (centres unmarked) [Compound 118, 3-((4-(6-(2-Chloro-3-fluorophenyl)-5-(methoxycarbonyl)-2-(thiazol-2-yl)-3,6-dihydropyrimidin-4-yl)piperidin-1-yl)sulfonyl)benzoic Acid] | 7.82 | 59100
